# Source: PMC12655060, “Modified Hevein-like Peptide from Amaranthus caudatus as a Promising Agent Against Pathogenic Candida Species” (Pharmaceutics, 2025)
# Values joined by “and” are separate entries in the source; they are usually repeats but may differ in a detail not shown here. Identical values can stand only once. Like-named read-outs stand apart in the source and are kept apart here. Positions of bridges follow the written chain, without caps; N, C: chain ends. No end group written: not given here.
# Key:
# C. albicans ATCC 18804 [1] = details: for MIC, RPMI-1640 / MIC, ½Sabouraud broth: Table S4; for antifungal activity in RPMI-1640: at a concentration of 50 μM
# Experimental: (§1) Briefly, fungal cells at a concentration of 4 × 10^4 cells/mL in the Sabouraud broth were mixed with equal volumes of serial dilutions of the peptide in water (final volume 100 μL and pH 6.0) and incubated at 30 °C for 24 h. Inhibition of fungal growth was assessed relative to the peptide-free control, based on absorbance at 630 nm and microscopic analysis. MIC50 and MIC were defined as minimal concentrations of the peptide, causing 50 and 100% inhibition of fungal growth. […] The effects of heating and reduction in disulfide bonds on the activity of the peptide towards C. albicans ATCC 18804 was also tested. […] Tobacco defensin NaD1, whose structure is also stabilized by disulfide bonds, was used for comparison in these experiments. The effect of reduced L-glutathione (AppliChem, Darmstadt, Germany), a component of RPMI-1640 medium, at a final concentration of 3.25 μM, was also studied.
# (§2) Each experiment was conducted twice in triplicate. The microplate wells were pre-treated with 0.1% BSA to minimize adsorption of antifungal agents.
# C. albicans ATCC 18804 [2] = test: Resistance induction experiments (serial passage); assay type: cell-based, Candida albicans; details: passaging at 0.25 × MIC for 24 days; mAc-AMP2 8th and 24th, caspofungin 21, LL-37 24th passage
# Experimental: For comparison, the echinocandin caspofungin, human cathelicidin LL-37, and tobacco defensin NaD1 were used in these experiments. C. albicans ATCC 18804 or ATCC 10231 at a concentration of 4 × 10^4 cells/mL were added to serial dilutions of antifungal agents. The 96-well microplates were incubated overnight at 30 °C and MIC values were determined as described above. […] Sequential passaging followed by MIC determination continued for 24 days. […] After that whole cultures as well as single colonies were used for MICs determination to confirm the stability of acquired resistance to the peptide.
# C. albicans ATCC 18804 [3] = assay type: cell-based, Candida albicans
# Experimental: (§3) Serial dilutions of the mixture of two combinable substances were added to the equal volumes of fungal cell suspensions in this case. […] Caspofungin or ebselen in 1% DMSO as well as voriconazole in 1% methanol were tested in these experiments.
# C. albicans 8.2 [4] = details: 12.5 μM (2 × MIC) and 25 μM (4 × MIC), same conditions; cited from earlier work
# C. albicans 9.1 [5] = details: 12.5 μM (2 × MIC) and 25 μM (4 × MIC), same conditions; cited from earlier work
# C. albicans 8.2 [6] = test: Prevention of adhesion to the plastic surface; assay type: cell-based, Candida albicans; details: for Cell adhesion, % / Inhibition of adhesion, %: plastic surface
# Experimental: The plates were incubated for 1.5 h at 37 °C; after that, plate wells were washed twice with PBS to remove unattached C. albicans cells. Adherent cells were detached by microplate incubation for 45 min with trypsin/EDTA solution. Enzymatic activity was stopped by an addition of 10% FBS. After that the well contents were scraped, diluted 100-fold with PBS, and plated on Sabouraud agar with glucose and chloramphenicol. In this case, adhesion was calculated as ((N × 100)/5 × 10^5) × 100%, and adhesion inhibition was calculated as described above. These experiments were carried out twice in triplicate.
# C. albicans 8.2 [7] = assay type: cell-based, Candida albicans; details: for [A]/MICA: ratio for mAc-AMP2 in the combination; for [B]/MICB: ratio for the named agent in the combination
# Experimental: as §3
# C. albicans 9.1 [8] = assay type: cell-based, Candida albicans; details: for [A]/MICA: ratio for mAc-AMP2 in the combination; for [B]/MICB: ratio for the named agent in the combination
# Experimental: as §3
# C. albicans 8.2 [9] = test: Antifungal microdilution assay; assay type: cell-based; details: Candida albicans, Sabouraud broth
# Experimental: as §1, §2
# C. albicans ATCC 18804 [10] = system: C. albicans ATCC 18804; parameters: method as in PMID 39770352, PMID 39337545; details: 2 h, same conditions; cited from earlier work
# C. albicans ATCC 18804 [11] = test: Calcofluor White binding assay (cell wall chitin content); assay type: cell-based, Candida albicans; details: at MIC
# Experimental: Polyene antimycotic amphotericin B (AmB) was also used in these experiments. […] Cell cultures were harvested, washed twice with PBS, and stained with 20 μg/mL CFW in PBS for 30 min. After that stained cells were washed three times with PBS and the cell density of each group was adjusted to 10^6 cells/mL using Cell Counter LUNA-II (Logos Biosystems, Anyang-si, Republic of Korea) and trypan blue. Unstained or stained untreated by antifungal agent cells were used as negative and positive controls, respectively. Fluorescence intensities were measured at 20 °C using a Hitachi F-2710 spectrofluorometer (Hitachi High Technologies America Inc., Pleasanton, CA, USA) with excitation and emission wavelengths of 350 nm (10 nm width) and 435 nm, respectively. Results were expressed as % of fluorescence intensity in comparison to positive control. This study was performed twice in triplicate.
# [12] = system: Caco-2 cells in a monolayer; test: Cytotoxicity assay (resazurin); assay type: cell-based, human; details: 12.5 µM, 24 h
# Experimental: Then 10 µL of resazurin at a concentration of 0.7 mM was added and the incubation was continued for 4 h. Untreated cells and cells in the presence of 0.1% Triton X-100 were used as negative and positive controls, respectively. The cell viability was estimated by resorufin fluorescence registered at 595 nm as (Fsample/Fcontrol) × 100%. Wells containing no cells were used to subtract background fluorescence. This experiment was carried out twice in duplicate.
# [13] = ratio of mAc-AMP2 concentration in the combination with the named agent to its MIC
# [14] = ratio of the named agent's concentration in combination with mAc-AMP2 to its MIC
# [15] = combination of the named agent with mAc-AMP2
compound,measurement,setting,value
CC[C@H](C)[C@H](NC(=O)[C@H](CCCCN)NC(=O)[C@H](CCC(=O)O)NC(=O)[C@H](CCCCN)NC(=O)[C@H](CO)NC(=O)[C@H](CCCCN)NC(=O)[C@H](CCCNC(=N)N)NC(=O)[C@H](Cc1ccccc1)NC(=O)[C@H](Cc1ccccc1)NC(=O)[C@H](CC(=O)O)NC(=O)CNC(=O)[C@H](CC(C)C)NC(=O)[C@@H](N)CC(C)C)C(=O)NCC(=O)N[C@@H](CCCCN)C(=O)N[C@@H](CCC(=O)O)C(=O)N[C@@H](Cc1ccccc1)C(=O)N[C@@H](CCCCN)C(=O)N[C@@H](CCCNC(=N)N)C(=O)N[C@H](C(=O)N[C@H](C(=O)N[C@@H](CCC(N)=O)C(=O)N[C@@H](CCCNC(=N)N)C(=O)N[C@H](C(=O)N[C@@H](CCCCN)C(=O)N[C@@H](CC(=O)O)C(=O)N[C@@H](Cc1ccccc1)C(=O)N[C@@H](CC(C)C)C(=O)N[C@@H](CCCNC(=N)N)C(=O)N[C@@H](CC(N)=O)C(=O)N[C@@H](CC(C)C)C(=O)N[C@H](C(=O)N1CCC[C@H]1C(=O)N[C@@H](CCCNC(=N)N)C(=O)N[C@H](C(=O)N[C@@H](CCC(=O)O)C(=O)N[C@@H](CO)C(=O)O)[C@@H](C)O)C(C)C)[C@@H](C)CC)C(C)C)[C@@H](C)CC [LL-37],"MIC, RPMI-1640",C. albicans ATCC 18804 [1],> 50 µM
same,"MIC, ½Sabouraud broth",C. albicans ATCC 18804 [1]; ½Sabouraud broth,12.5 µM
same,antifungal activity in RPMI-1640,C. albicans ATCC 18804 [1],did not exhibit antifungal activity
same,MIC,"C. albicans ATCC 18804 [1]; microdilution, ½Sabouraud broth, pH 6.0, no salts, no FBS, 30 °C, 24 h, 100% growth inhibition, twice in triplicate",12.5 µM
same,MIC increase during serial passage,C. albicans ATCC 18804 [2],two-fold
same,[A]/MICA,C. albicans ATCC 18804 [3]; [13],0.5
same,[B]/MICB,C. albicans ATCC 18804 [3]; [14],0.5
"RECKTESNTFPGICITKPPCRKACISEKFTDGHCSKILRRCLCTKPC (disulfide 3-47, 14-34, 20-41, 24-43 (inferred)) [NaD1]",effect on adhesion to the Caco-2 cell monolayer,C. albicans 8.2 [4],effectively inhibited the adhesion
same,effect on adhesion to the Caco-2 cell monolayer,C. albicans 9.1 [5],effectively inhibited the adhesion
same,MFC,"C. albicans ATCC 18804 [1]; ATCC 18804, 24 h",25 µM
same,MIC,"C. albicans ATCC 18804 [1]; ATCC 18804, 24 h",6.25 µM
same,MFC,"C. albicans ATCC 18804 [1]; ATCC 18804, 24 h, pH 6",12.5 µM
same,MIC,"C. albicans ATCC 18804 [1]; ATCC 18804, 24 h, pH 6",6.25 µM
same,MIC increase during serial passage,C. albicans ATCC 18804 [2],no change in the sensitivity
same,"Cell adhesion, %",C. albicans 8.2 [6]; 3.13 μM,5.29%
same,"Cell adhesion, %",C. albicans 8.2 [6]; 6.25 μM,0.96%
same,"Inhibition of adhesion, %",C. albicans 8.2 [6]; 6.25 μM,81.32%
same,"Cell adhesion, %","C. albicans 8.2 [6]; 12.5 μM, Sabouraud broth, 1.5 h, 37 °C",0.15%
same,"Inhibition of adhesion, %",C. albicans 8.2 [6]; 12.5 μM,97.12% and ~100%
same,"Cell adhesion, %","C. albicans 8.2 [6]; 25 μM, Sabouraud broth, 1.5 h, 37 °C",0.05%
same,"Inhibition of adhesion, %",C. albicans 8.2 [6]; 25 μM,99.03%
same,FICI,C. albicans ATCC 18804 [3],0.75
same,[A]/MICA,C. albicans ATCC 18804 [3]; [13],0.5
same,[B]/MICB,C. albicans ATCC 18804 [3]; [14],0.25
same,FICI,C. albicans 8.2 [7]; 8.2,1
same,[A]/MICA,C. albicans 8.2 [7]; strain 8.2,0.5
same,[B]/MICB,C. albicans 8.2 [7]; strain 8.2,0.5
same,FICI,C. albicans 9.1 [8]; 9.1,1
same,[A]/MICA,C. albicans 9.1 [8]; strain 9.1,0.5
same,[B]/MICB,C. albicans 9.1 [8]; strain 9.1,0.5
CC[C@H](C)C[C@H](C)CCCCCCCCC(=O)N[C@H]1C[C@@H](O)[C@@H](NCCN)NC(=O)[C@@H]2[C@@H](O)CCN2C(=O)[C@H]([C@H](O)CCN)NC(=O)[C@H]([C@H](O)[C@@H](O)c2ccc(O)cc2)NC(=O)[C@@H]2C[C@@H](O)CN2C(=O)[C@H]([C@@H](C)O)NC1=O [Caspofungin],MIC increase during serial passage,C. albicans ATCC 18804 [2],eight-fold
same,MIC,C. albicans 8.2 [9],0.04 µg/mL
same,effect on PI uptake,C. albicans ATCC 18804 [10],no effects
same,inhibition at 5.12 µg/mL,"C. albicans 8.2 [6]; Candida albicans, 8.2, read-out: Inhibition of adhesion",~40%
same,FICI,C. albicans ATCC 18804 [3]; [15],2
same,[A]/MICA,C. albicans ATCC 18804 [3]; [13],1
same,[B]/MICB,C. albicans ATCC 18804 [3]; [14],1
C[C@@H](c1ncncc1F)[C@](O)(Cn1cncn1)c1ccc(F)cc1F [Voriconazole],FICI,"C. albicans ATCC 18804 [3]; combination with mAc-AMP2, for voriconazole MIC50 values were used",2
same,[A]/MICA,"C. albicans ATCC 18804 [3]; ratio for mAc-AMP2 in the combination, for voriconazole MIC50 values were used",1
same,[B]/MICB,"C. albicans ATCC 18804 [3]; ratio for voriconazole in the combination, MIC50 values were used",1
"GIGDPVTCLKSGAICHPVFCPRRYKQIGTCGLPGTKCCKKP (disulfide 8-37, 15-30, 20-38 (inferred)) [HBD2]","MIC, RPMI-1640",C. albicans ATCC 18804 [1],> 50 µM
same,"MIC, ½Sabouraud broth",C. albicans ATCC 18804 [1]; ½Sabouraud broth,6.25 µM
same,antifungal activity in RPMI-1640,C. albicans ATCC 18804 [1],did not exhibit antifungal activity
same,[A]/MICA,C. albicans ATCC 18804 [3]; [13],0.5
same,[B]/MICB,C. albicans ATCC 18804 [3]; [14],0.5
O=c1c2ccccc2[se]n1-c1ccccc1 [Ebselen],FICI,C. albicans ATCC 18804 [3]; [15],1
same,[A]/MICA,C. albicans ATCC 18804 [3]; [13],0.5
same,[B]/MICB,C. albicans ATCC 18804 [3]; [14],0.5
same,FICI,"C. albicans 8.2 [7]; combination of the named agent with mAc-AMP2, strain 8.2",0.75
same,[A]/MICA,C. albicans 8.2 [7]; strain 8.2,0.5
same,[B]/MICB,C. albicans 8.2 [7]; strain 8.2,0.25
same,FICI,"C. albicans 9.1 [8]; combination of the named agent with mAc-AMP2, strain 9.1",1
same,[A]/MICA,C. albicans 9.1 [8]; strain 9.1,0.5
same,[B]/MICB,C. albicans 9.1 [8]; strain 9.1,0.5
C[C@@H]1[C@H](O)[C@@H](C)/C=C/C=C/C=C/C=C/C=C/C=C/C=C/[C@H](O[C@@H]2O[C@H](C)[C@@H](O)[C@H](N)[C@@H]2O)C[C@@H]2O[C@](O)(C[C@@H](O)C[C@@H](O)[C@H](O)CC[C@@H](O)C[C@@H](O)CC(=O)O[C@H]1C)C[C@H](O)[C@H]2C(=O)O [amphotericin B],fluorescence intensity of Calcofluor White-stained cells,C. albicans ATCC 18804 [11],reduced
same,effect on PI uptake,C. albicans ATCC 18804 [10],no effects
melittin,cell death,[12],about 100%
